# Literature values, collected in US9309233B2, “Compositions and methods for the treatment of blood clotting disorders” (CELLIX BIO PRIVATE LIMITED, priority 2012, dated 2016).
Compound,time at which plasma levels peak (plasma levels of dabigatran after drug administration (dabigatran etexilate)),oral bioavailability (oral)
[H]/N=C(/N)c1ccc(NCc2nc3cc(C(=O)N(CCC(=O)O)c4ccccn4)ccc3n2C)cc1 [dabigatran],≈ 2 hours,
CCCCCCOC(=O)NC(=N)c1ccc(NCc2nc3cc(C(=O)N(CCC(=O)OCC)c4ccccn4)ccc3n2C)cc1 [Dabigatran etexilate],,≈ 6%
